Data taken from patent US20180353462A1, “[…] AGENTS […] FLAVONOID DERIVATIVES TARGETING KINASES, SIRTUINS AND ONCOGENIC AGENTS FOR THE TREATMENT OF CANCERS” (priority 2015, published 2018).
pIC50: −log10 of the molar value. Read-outs that look alike come from different tables or passages of the source.

Legend:
FLT3 = target: T1, FLT3 (Homo sapiens, UniProt P36888); assay type: binding; conditions: for pIC50: Table 4, read-out: Acute Myeloid Leukemia Kinases FLT3 IC50; for IC50: Table 1 kinase panel, read-out: IC50 (nM) FLT3
T1 construct: made in house
T1 sequence (P36888 27-993): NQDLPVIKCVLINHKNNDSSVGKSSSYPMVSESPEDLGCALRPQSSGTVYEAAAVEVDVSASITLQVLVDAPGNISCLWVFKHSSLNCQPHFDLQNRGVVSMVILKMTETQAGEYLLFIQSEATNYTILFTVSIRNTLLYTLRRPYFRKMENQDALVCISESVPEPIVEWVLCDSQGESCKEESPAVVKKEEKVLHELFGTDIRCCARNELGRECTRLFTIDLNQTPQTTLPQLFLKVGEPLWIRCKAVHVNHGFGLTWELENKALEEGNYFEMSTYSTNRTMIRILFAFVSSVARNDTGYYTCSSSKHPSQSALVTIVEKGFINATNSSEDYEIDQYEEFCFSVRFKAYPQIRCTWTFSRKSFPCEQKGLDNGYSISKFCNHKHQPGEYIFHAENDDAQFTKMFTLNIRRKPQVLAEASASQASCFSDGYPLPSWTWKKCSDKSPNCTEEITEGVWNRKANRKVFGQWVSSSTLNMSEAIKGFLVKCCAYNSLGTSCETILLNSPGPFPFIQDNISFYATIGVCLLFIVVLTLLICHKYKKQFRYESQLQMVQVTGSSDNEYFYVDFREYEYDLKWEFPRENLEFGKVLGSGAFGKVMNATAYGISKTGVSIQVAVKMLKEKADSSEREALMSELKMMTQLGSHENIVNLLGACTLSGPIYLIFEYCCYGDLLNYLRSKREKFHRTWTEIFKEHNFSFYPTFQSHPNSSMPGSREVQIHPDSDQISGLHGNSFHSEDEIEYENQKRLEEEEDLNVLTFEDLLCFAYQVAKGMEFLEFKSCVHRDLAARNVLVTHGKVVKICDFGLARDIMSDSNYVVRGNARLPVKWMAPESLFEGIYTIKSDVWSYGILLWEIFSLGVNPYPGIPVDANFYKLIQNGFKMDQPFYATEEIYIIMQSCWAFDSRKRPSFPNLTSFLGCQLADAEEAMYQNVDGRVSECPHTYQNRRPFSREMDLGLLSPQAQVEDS
Description: (§1) Cannabis flavonoids and their analogs were subjected to kinase inhibition assay. The compounds were first screened at a single concentration of 10 μM in the primary assay. […] To determine the kd or IC50 values, competition binding assays were established, authenticated and executed as described previously. […] See also, Karaman et al., “A Quantitative Analysis Of Kinase Inhibitor Selectivity”, Nat. Biotechnol. […] For most assays, kinases were fused to T7 phage strains (Fabian, supra) and for the other assays, kinases were produced in HEK-293 cells after which they were tagged with DNA for quantitative PCR detection. In general, full-length constructs were used for small, single domain kinases, and catalytic domain constructs for large multi-domain kinases. […] The liganded beads were blocked with excess biotin and washed with blocking buffer (SeaBlock (Pierce), 1% BSA, 0.05% Tween 20, 1 mM DTT) to remove unbound ligand and to reduce non-specific phage binding. […] All reactions were performed in polypropylene 384-well plates in a final volume of 0.04 ml. […] The kinase concentration in the eluates was measured by quantitative PCR. An illustration of the kinase interaction process is presented below. Kd/IC50 values were determined using a standard dose response curve using the hill equation. Curves were fitted using a non-linear least square fit with the Levenberg-Marquardt algorithm.

FLT3(ITD) = target: T2, FLT3(ITD) (Homo sapiens, UniProt P36888); assay type: binding; conditions: for pIC50: Table 4, read-out: Acute Myeloid Leukemia Kinases FLT3-ITD IC50; for IC50: Table 1 kinase panel, read-out: IC50 (nM) FLT3(ITD)
T2 construct: In general, full-length constructs were used for small, single domain kinases, and catalytic domain constructs for large multi-domain kinases; fused on or other part: T7 phage fusion or DNA tag for qPCR detection (general statement)
T2 sequence (P36888 1-993): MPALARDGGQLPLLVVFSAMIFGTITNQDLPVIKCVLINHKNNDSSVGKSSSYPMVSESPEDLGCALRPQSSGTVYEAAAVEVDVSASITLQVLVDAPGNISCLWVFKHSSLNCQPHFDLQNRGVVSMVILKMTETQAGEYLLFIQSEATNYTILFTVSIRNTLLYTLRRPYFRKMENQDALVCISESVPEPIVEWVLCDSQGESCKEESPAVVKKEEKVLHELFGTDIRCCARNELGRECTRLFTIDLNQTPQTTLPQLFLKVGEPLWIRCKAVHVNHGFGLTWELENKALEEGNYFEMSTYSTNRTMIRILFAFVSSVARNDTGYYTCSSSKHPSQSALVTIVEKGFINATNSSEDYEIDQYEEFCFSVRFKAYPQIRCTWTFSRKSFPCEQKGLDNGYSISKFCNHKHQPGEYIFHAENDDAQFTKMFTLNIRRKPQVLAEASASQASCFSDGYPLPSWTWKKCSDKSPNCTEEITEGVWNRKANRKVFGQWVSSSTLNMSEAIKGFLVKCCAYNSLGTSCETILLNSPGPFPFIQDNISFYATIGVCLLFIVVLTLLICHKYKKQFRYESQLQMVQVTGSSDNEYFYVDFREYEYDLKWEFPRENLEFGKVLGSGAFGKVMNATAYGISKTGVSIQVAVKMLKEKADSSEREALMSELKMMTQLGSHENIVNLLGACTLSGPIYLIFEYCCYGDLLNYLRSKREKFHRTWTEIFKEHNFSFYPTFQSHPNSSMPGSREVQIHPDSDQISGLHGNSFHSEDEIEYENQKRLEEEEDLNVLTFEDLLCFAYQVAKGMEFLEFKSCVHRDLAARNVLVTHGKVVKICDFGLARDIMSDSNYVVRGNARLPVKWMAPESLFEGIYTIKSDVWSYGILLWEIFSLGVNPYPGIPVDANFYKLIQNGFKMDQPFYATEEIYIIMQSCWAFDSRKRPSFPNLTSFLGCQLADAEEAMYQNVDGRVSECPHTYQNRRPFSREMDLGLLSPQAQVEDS
Description: as §1

Row | SMILES | pIC50 (FLT3) | pIC50 (FLT3(ITD)) | IC50 (FLT3) | IC50 (FLT3(ITD))
1 | COc1cc(-c2oc3cc(O)ccc3c(=O)c2O)ccc1O [FBLGS-81] | 8.72 | 8.42 |  | 
2 | O=c1cc(-c2ccc(O)c(O)c2)oc2cc(O)cc(O)c12 [FBLGS-77] | 5.88 | 6.10 |  | 
3 | COc1cc(-c2cc(=O)c3c(O)c(C/C=C(\C)CCC=C(C)C)c(O)cc3o2)ccc1O [FBL-03A] |  |  | > 20000 nM | > 20000 nM
4 | COc1cc(O)c2c(=O)c(O)c(-c3ccc(O)c(O)c3)oc2c1 [FBLGS-79] | 7.60 | 7.08 |  | 
5 | COc1cc(-c2cc(=O)c3c(O)cc(O)c(C/C=C(\C)CCC=C(C)C)c3o2)ccc1O [FBL-03C] |  |  | > 20000 nM | > 20000 nM
6 | COc1cc(O)c2c(=O)c(O)c(-c3ccc(O)c(OC)c3)oc2c1 [FBLGS-80] | 7.22 | 7.08 |  | 
7 | O=C1CC(c2ccc(O)c(O)c2)Oc2cc(O)cc(O)c21 (stereo not drawn) [FBLGS-82] | 4.76 | 4.92 |  | 
8 | O=c1c(O)c(-c2ccc(O)c(O)c2)oc2cc(O)ccc12 [FBLGS-83] | 6.24 | 6.74 |  | 
9 | COc1ccc(C2CC(=O)c3c(O)cc(O)cc3O2)cc1O (stereo not drawn) [FBLGS-74] | 4.78 | 5.04 |  | 
10 | Cc1cc2oc(-c3cccc(N)c3)cc(=O)c2c([N+](=O)[O-])c1C [FBLGS-76] | 6.06 | 6.12 |  | 
11 | O=c1c(O)c(-c2ccc(O)c(O)c2)oc2cc(O)cc(O)c12 [FBLGS-84] | 6.09 | 6.34 |  | 
12 | COc1cc(-c2cc(=O)c3c(O)c(OC)c(O)cc3o2)ccc1O [FBLGS-86] | 7.13 | 7.35 |  | 
13 | COc1cc(O)c2c(=O)c(O)c(-c3ccc(O)c(O)c3)oc2c1 [FBLGS-78] | 6.51 | 6.46 |  | 
14 | COc1cc(-c2cc(=O)c3c(O)c(OC)c(OC)cc3o2)ccc1O [FBLGS-85] | 7.30 | 7.24 |  | 
15 | COc1ccc(-c2cc(=O)c3c(O)c(C/C=C(\C)CCC=C(C)C)c(O)cc3o2)cc1OC [FBL-03D] |  |  | > 30000 nM | > 30000 nM
16 | O=c1cc(-c2ccccc2)oc2cc(O)cc(O)c12 [FBLGS-75] | 6.66 | 7.04 |  | 
17 | COc1cc(-c2cc(=O)c3c(O)c(CC=C(C)C)c(O)cc3o2)ccc1O [FBL-03B] |  |  | 41.9 nM | 57 nM
18 | COc1cc(-c2cc(=O)c3c(O)cc(O)c(CC=C(C)C)c3o2)ccc1O [FBL-03G] |  |  | 44 nM | < 1000 nM
